From BindingDB's records for doi:10.7270/Q2H993J6 (Pcmd, 2008)

Biological target: Coagulation factor XI (Homo sapiens, UniProt P03951)
Assay: FXIa inhibitor IC50 values, dose response, biochemical, hits from 1536-well screen (AID 846)
Details: pH 7.4; 23 °C

Coagulation factor XI, sequence (P03951 19-387 limits assumed): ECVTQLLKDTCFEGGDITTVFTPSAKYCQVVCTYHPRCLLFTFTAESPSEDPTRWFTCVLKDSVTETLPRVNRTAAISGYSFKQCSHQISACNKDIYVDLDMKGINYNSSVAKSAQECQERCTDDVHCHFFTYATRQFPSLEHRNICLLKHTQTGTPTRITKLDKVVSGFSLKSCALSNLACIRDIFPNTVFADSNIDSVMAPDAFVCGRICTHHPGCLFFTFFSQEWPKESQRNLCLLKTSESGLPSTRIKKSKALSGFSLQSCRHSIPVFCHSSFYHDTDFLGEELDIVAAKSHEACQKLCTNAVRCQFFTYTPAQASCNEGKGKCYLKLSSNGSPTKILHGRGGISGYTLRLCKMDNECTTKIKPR
Coagulation factor XI, sequence (P03951 388-625 limits assumed): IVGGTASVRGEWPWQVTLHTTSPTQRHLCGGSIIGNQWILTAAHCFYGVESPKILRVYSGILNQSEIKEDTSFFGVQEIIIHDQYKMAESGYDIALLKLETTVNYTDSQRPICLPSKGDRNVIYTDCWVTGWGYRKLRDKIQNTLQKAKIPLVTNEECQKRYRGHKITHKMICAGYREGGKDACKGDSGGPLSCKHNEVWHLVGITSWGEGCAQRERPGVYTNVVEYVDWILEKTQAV

IC50 | Structure (SMILES)
> 50000 nM | CCN(CC)CCNC(=O)c1ccc(NC(=O)c2cccc(S(=O)(=O)Nc3ccc(C)cc3)c2)cc1 [potassium;[3-[[4-[2-(diethylamino)ethylcarbamoyl]phenyl]carbamoyl]phenyl]sulfonyl-(4-methylphenyl)azanide]
762 nM | Cc1ccc(C)c(S(=O)(=O)ON2C(=O)c3ccccc3C2=O)c1 [2,5-dimethylbenzenesulfonic acid (1,3-dioxo-2-isoindolyl) ester]
